Laboratory results published in ChEMBL document CHEMBL3399993, “Design and synthesis of novel quinoline-aminopiperidine hybrid analogues as Mycobacterium tuberculosis DNA gyraseB inhibitors” (Bioorg Med Chem, 2015).
≈ marks a conversion by molar mass, not a printed value.

What was measured:
[1] = test system: Mycobacterium tuberculosis; test: Antimycobacterial activity against Mycobacterium tuberculosis H37Rv ATCC 27294 incubated for 7 days by microplate alamar blue assay method; format: functional; settings: H37Rv ATCC 27294, 168 h
DNA gyrase subunit B = DNA gyrase subunit B (Mycobacterium smegmatis, UniProt P0C559); test: Inhibition of Mycobacterium smegmatis GyrB ATPase activity expressed in Escherichia coli BL21 (DE3) pLysS cells after 100 mins by inorganic phosphate release detection based malachite green reagent assay; design: species or system Mycolicibacterium smegmatis
[2] = target: DNA gyrase subunit A/DNA gyrase subunit B (Mycobacterium tuberculosis (strain ATCC 25618 / H37Rv), UniProt P9WG45+P9WG47); test: Inhibition of Mycobacterium tuberculosis GyrA/GyrB using relaxed pBR322 substrate incubated for 30 mins by ethidium bromide staining and electrophoresis based DNA supercoiling assay
[3] = Cytotoxicity against mouse RAW264.7 cells assessed as inhibition of cell growth at 50 uM after 48 hrs by MTT assay; format: cell-based; settings: read-out: GI

Chain of DNA gyrase subunit A/DNA gyrase subunit B (P9WG45 whole entry): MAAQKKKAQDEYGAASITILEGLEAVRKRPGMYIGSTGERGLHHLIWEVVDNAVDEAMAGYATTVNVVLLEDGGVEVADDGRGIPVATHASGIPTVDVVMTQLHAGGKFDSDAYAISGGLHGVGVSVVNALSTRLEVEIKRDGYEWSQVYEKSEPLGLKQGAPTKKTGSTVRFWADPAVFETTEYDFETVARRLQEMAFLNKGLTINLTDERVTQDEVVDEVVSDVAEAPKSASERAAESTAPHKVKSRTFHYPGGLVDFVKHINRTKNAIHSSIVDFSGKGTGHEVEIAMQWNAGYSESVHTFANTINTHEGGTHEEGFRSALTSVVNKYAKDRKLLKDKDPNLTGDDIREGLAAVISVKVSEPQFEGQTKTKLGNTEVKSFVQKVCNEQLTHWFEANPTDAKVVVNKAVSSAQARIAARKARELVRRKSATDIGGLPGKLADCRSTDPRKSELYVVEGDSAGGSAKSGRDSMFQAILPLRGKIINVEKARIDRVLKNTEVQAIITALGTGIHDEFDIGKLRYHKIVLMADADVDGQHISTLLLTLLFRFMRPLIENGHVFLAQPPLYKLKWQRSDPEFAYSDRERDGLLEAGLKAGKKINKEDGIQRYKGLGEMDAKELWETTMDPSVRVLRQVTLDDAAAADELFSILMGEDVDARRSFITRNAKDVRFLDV
Chain of DNA gyrase subunit A/DNA gyrase subunit B (P9WG47 whole entry): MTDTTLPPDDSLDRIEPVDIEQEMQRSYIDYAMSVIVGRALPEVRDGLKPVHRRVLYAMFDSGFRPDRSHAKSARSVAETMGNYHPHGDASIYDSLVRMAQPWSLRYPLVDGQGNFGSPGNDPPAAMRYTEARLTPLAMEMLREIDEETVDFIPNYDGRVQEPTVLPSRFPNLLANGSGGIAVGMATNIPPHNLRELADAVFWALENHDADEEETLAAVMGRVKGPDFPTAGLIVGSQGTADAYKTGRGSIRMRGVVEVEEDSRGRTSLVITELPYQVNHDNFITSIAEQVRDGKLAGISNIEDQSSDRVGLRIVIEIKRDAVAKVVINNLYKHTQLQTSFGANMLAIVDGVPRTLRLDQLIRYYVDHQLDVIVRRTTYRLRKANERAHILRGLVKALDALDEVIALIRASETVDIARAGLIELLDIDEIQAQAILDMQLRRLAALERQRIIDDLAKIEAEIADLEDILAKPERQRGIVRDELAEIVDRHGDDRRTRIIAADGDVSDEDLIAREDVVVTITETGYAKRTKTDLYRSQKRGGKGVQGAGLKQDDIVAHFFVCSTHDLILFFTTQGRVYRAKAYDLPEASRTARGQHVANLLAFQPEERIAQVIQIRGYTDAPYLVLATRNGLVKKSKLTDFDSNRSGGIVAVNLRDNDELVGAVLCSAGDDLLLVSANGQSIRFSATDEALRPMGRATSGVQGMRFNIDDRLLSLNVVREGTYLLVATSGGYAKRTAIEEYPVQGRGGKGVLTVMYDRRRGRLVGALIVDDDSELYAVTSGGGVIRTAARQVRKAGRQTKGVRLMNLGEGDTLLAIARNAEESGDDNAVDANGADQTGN
Chain of DNA gyrase subunit B (P0C559 whole entry): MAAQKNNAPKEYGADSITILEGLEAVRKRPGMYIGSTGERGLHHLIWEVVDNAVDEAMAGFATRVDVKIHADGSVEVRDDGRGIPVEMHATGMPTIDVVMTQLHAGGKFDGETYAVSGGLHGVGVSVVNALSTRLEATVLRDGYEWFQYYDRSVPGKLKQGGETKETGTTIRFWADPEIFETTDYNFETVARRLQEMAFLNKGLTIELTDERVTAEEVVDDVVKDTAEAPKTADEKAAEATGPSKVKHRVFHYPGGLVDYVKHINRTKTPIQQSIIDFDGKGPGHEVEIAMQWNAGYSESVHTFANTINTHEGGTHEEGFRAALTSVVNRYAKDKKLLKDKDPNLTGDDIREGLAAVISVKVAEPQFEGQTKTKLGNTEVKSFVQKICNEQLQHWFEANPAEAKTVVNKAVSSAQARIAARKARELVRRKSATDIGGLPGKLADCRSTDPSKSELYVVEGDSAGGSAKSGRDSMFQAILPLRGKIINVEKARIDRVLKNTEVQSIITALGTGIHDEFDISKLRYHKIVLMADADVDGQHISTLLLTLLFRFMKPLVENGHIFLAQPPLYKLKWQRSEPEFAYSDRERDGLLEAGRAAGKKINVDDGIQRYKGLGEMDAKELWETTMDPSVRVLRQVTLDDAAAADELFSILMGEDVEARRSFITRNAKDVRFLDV

| Structure (SMILES) | MIC [1] [µM] | IC50 (DNA gyrase subunit B) [µM] | IC50 [2] [µM] | inhibition at 48 h, 50 µM [3] [%] |
| --- | --- | --- | --- | --- |
| Cc1cc(N2CCC(NC(=O)Nc3ccc([N+](=O)[O-])cc3)CC2)c2cc(F)ccc2n1 | 9.52 (≈ 4.03 µg/mL) | 6.83 | 2.14 | 47.9 |
| Cc1ccc(NC(=O)NC2CCN(c3cc(C)nc4ccc(F)cc34)CC2)cc1 | 16 (≈ 6.27 µg/mL) | 15 | 8.83 | 39.7 |
| NNC(=O)c1ccncc1 [ISONIAZID] | 0.66 (≈ 0.0905 µg/mL) |  |  |  |
| Cc1cc(N2CCC(NC(=O)Nc3ccccc3)CC2)c2cc(F)ccc2n1 | 33 (≈ 12.5 µg/mL) | 20.5 | 9.84 | 48.9 |
| Cc1ccc(NC(=S)NC2CCN(c3cc(C)nc4ccc(C(F)(F)F)cc34)CC2)cc1 | 31.7 (≈ 14.5 µg/mL) | 24.7 | 5.1 | 19.3 |
| Cc1cc(N2CCC(NC(=O)Nc3ccc([N+](=O)[O-])cc3)CC2)c2ccccc2n1 | 15.4 (≈ 6.25 µg/mL) | 17 | 10.6 | 30.4 |
| CO[C@H]1/C=C/O[C@@]2(C)Oc3c(C)c(O)c4c(O)c(c(/C=N/N5CCN(C)CC5)c(O)c4c3C2=O)NC(=O)/C(C)=C\C=C\[C@H](C)[C@H](O)[C@@H](C)[C@@H](O)[C@@H](C)[C@H](OC(C)=O)[C@@H]1C [RIFAMPIN] | 0.23 (≈ 0.189 µg/mL) |  |  |  |
| Cc1cc(N2CCC(NC(=O)Nc3ccccc3)CC2)c2ccccc2n1 | 25.8 (≈ 9.31 µg/mL) | 17.3 | 9.79 | 33.9 |
| COc1ccc(NC(=S)NC2CCN(c3cc(C)nc4ccc(OC)cc34)CC2)cc1 | 15.8 (≈ 6.92 µg/mL) | 10.1 | 6.17 | 31.8 |
| COc1ccc(NC(=S)NC2CCN(c3cc(C)nc4ccc(C(F)(F)F)cc34)CC2)cc1 | 66.9 (≈ 31.7 µg/mL) | 32.6 | 34.5 | 41.8 |
| COc1ccc2nc(C)cc(N3CCC(NC(=S)Nc4ccc([N+](=O)[O-])cc4)CC3)c2c1 | 1.72 (≈ 0.777 µg/mL) | 2.5 | 0.88 | 24.9 |
| COc1ccc(NC(=S)NC2CCN(c3cc(C)nc4ccc(F)cc34)CC2)cc1 | 31.7 (≈ 13.4 µg/mL) | 39.5 | 17.8 | 21.3 |
| Cc1cc(N2CCC(NC(=O)Nc3ccc([N+](=O)[O-])cc3)CC2)c2cc(C(F)(F)F)ccc2n1 | 52.2 (≈ 24.7 µg/mL) | 47.6 | 22.3 | 48.2 |
| Cc1cc(N2CCC(NC(=S)Nc3ccccc3)CC2)c2ccccc2n1 | 16.6 (≈ 6.25 µg/mL) | 12.7 | 9.4 | 11.8 |
| Cc1cc(N2CCC(NC(=O)Nc3ccc(F)cc3)CC2)c2ccccc2n1 | 34.1 (≈ 12.9 µg/mL) | 34.9 | 19.7 | 49.4 |
| Cc1cc(N2CCC(NC(=O)Nc3ccccc3)CC2)c2cc(C(F)(F)F)ccc2n1 | 29.4 (≈ 12.6 µg/mL) | 14.9 | 8.3 | 20.1 |
| COc1ccc(NC(=S)NC2CCN(c3cc(C)nc4ccccc34)CC2)cc1 | 30.2 (≈ 12.3 µg/mL) | 19.4 | 13.5 | 21.9 |
| Cc1cc(N2CCC(NC(=S)Nc3ccc(F)cc3)CC2)c2cc(C(F)(F)F)ccc2n1 | 66.5 (≈ 30.8 µg/mL) | 48.5 | 22.8 | 50.7 |
| Cc1ccc(NC(=O)NC2CCN(c3cc(C)nc4ccccc34)CC2)cc1 | 24.1 (≈ 9.04 µg/mL) | 20.5 | 14.8 | 51.4 |
| Cc1cc(N2CCC(NC(=S)Nc3ccc(F)cc3)CC2)c2ccccc2n1 | 36.1 (≈ 14.3 µg/mL) | 29.8 | 16.7 | 32.9 |

| Structure (SMILES) | MIC [1] [µM] | IC50 (DNA gyrase subunit B) [µM] | IC50 [2] [µM] | inhibition at 48 h, 50 µM [3] [%] |
| --- | --- | --- | --- | --- |
| COc1ccc2nc(C)cc(N3CCC(NC(=S)Nc4ccc(F)cc4)CC3)c2c1 | 14.7 (≈ 6.25 µg/mL) | 8.7 | 2.31 | 29.3 |
| Cc1cc(N2CCC(NC(=O)Nc3ccc(Cl)cc3)CC2)c2ccccc2n1 | 7.91 (≈ 3.12 µg/mL) | 12.9 | 8.2 | 40.1 |
| COc1ccc2nc(C)cc(N3CCC(NC(=S)Nc4ccccc4)CC3)c2c1 | 3.81 (≈ 1.55 µg/mL) | 2.14 | 0.91 | 41.9 |
| COc1ccc(NC(=O)NC2CCN(c3cc(C)nc4ccc(C(F)(F)F)cc34)CC2)cc1 | 54.3 (≈ 24.9 µg/mL) | 41.2 | 19.8 | 29 |
| Cc1ccc(NC(=S)NC2CCN(c3cc(C)nc4ccc(F)cc34)CC2)cc1 | 67.9 (≈ 27.8 µg/mL) | 59.3 | 25.4 | 23.9 |
| COc1ccc(NC(=O)NC2CCN(c3cc(C)nc4ccc(F)cc34)CC2)cc1 | 7.65 (≈ 3.12 µg/mL) | 10.1 | 7.62 | 49.7 |
| Cc1cc(N2CCC(NC(=S)Nc3ccc([N+](=O)[O-])cc3)CC2)c2cc(C(F)(F)F)ccc2n1 | 51.1 (≈ 25 µg/mL) | 41.8 | 7.54 | 19.8 |
| COc1ccc2nc(C)cc(N3CCC(NC(=O)Nc4ccc(C)cc4)CC3)c2c1 | 15.4 (≈ 6.25 µg/mL) | 11.5 | 8.63 | 28.2 |
| Cc1cc(N2CCC(NC(=O)Nc3ccc(F)cc3)CC2)c2cc(F)ccc2n1 | 3.82 (≈ 1.51 µg/mL) | 1.78 | 0.78 | 25.4 |
| COc1ccc2nc(C)cc(N3CCC(NC(=O)Nc4ccc(Cl)cc4)CC3)c2c1 | 17.4 (≈ 7.37 µg/mL) | 16.2 | 14.3 | 42.4 |
| Cc1cc(N2CCC(NC(=S)Nc3ccc(Cl)cc3)CC2)c2cc(C(F)(F)F)ccc2n1 | 30.7 (≈ 14.7 µg/mL) | 16.5 | 4.12 | 11.8 |
| COc1ccc2nc(C)cc(N3CCC(NC(=O)Nc4ccc(F)cc4)CC3)c2c1 | 25.7 (≈ 10.5 µg/mL) | 18.5 | 14.8 | 17.3 |
| Cc1ccc(NC(=S)NC2CCN(c3cc(C)nc4ccccc34)CC2)cc1 | 15.7 (≈ 6.12 µg/mL) | 7.26 | 2.66 | 21.6 |
| Cc1cc(N2CCC(NC(=O)Nc3ccc(F)cc3)CC2)c2cc(C(F)(F)F)ccc2n1 | 24.9 (≈ 11.1 µg/mL) | 19.8 | 11.8 | 39.8 |
| COc1ccc(NC(=O)NC2CCN(c3cc(C)nc4ccccc34)CC2)cc1 | 32 (≈ 12.5 µg/mL) | 22 | 18.5 | 49.5 |
| Cc1cc(N2CCC(NC(=O)Nc3ccc(Cl)cc3)CC2)c2cc(F)ccc2n1 | 50.8 (≈ 21 µg/mL) | 49 | 29.6 | 49.7 |
| Cc1cc(N2CCC(NC(=O)Nc3ccc(Cl)cc3)CC2)c2cc(C(F)(F)F)ccc2n1 | 48.5 (≈ 22.5 µg/mL) | 34 | 17.3 | 29.1 |
| CO[C@@H]1[C@@H](OC(N)=O)[C@@H](O)[C@H](Oc2ccc3c(O)c(NC(=O)c4ccc(O)c(CC=C(C)C)c4)c(=O)oc3c2C)OC1(C)C [NOVOBIOCIN] | > 200 |  |  |  |
| Cc1cc(N2CCC(NC(=S)Nc3ccc([N+](=O)[O-])cc3)CC2)c2cc(F)ccc2n1 | 63.3 (≈ 27.8 µg/mL) | 56.1 | 25.5 | 40.7 |
| COc1c(N2C[C@@H]3CCCN[C@@H]3C2)c(F)cc2c(=O)c(C(=O)O)cn(C3CC3)c12 [MOXIFLOXACIN] | 1.26 (≈ 0.506 µg/mL) | > 50 |  |  |
